Source: patent US6479435B1, “Diaryl ethers and processes for their preparation and herbicidal and desiccant compositions containing them” (ISK Americas Incorporated, priority 1997, dated 2002)

Assays:
[1] = test system: Broadleaf Weeds; assay: Post-emergent application in combination with other herbicides, percent control of broadleaf weeds; assay type: in vivo; conditions: 31.25 g ai/ha
Method: All test compounds were dissolved in acetone and applied to the test units in a volume of 187 l/ha. Test materials were applied at rates ranging from 125 g ai/ha to 1000 g ai/ha using a track sprayer equipped with a TJ8001E even flow flat fan spray nozzle. Plants were arranged on a shelf so that the top of the canopy (post-emerge) or top of the soil surface (pre-emerge) was 40-45 cm below the nozzle. Pressurized air was used to force the test solution through the nozzle as it was mechanically advanced (via electrically driven chain drive) over the top of all test plants/pots. This application simulates a typical commercial field herbicide application. […] For post-emerge tests, seeds were planted 8-21 days prior to the test to allow emergence and good foliage development prior to application of the test substances. At the time of the post-emerge application, plants of all species were usually at the 2-3 leaf stage of development. Post-emerge test units were always bottom-watered. At 14 days after application of the test materials, phytotoxicity ratings were recorded. A rating scale of 0-100 was used as previously described in Research Methods in Weed Science, 2nd edition, B. Truelove, Ed., Southern Weed Science Society, Auburn University, Auburn, Ala., 1977. Briefly, “0” corresponds to no damage and “100” corresponds to complete death of all plants in the test unit. This scale was used both to determine efficacy against weed species and damage to crop species. Herbicide activity data for various compounds of this invention, which are shown by compound number in Tables 1-9, are shown in Tables 13 and 14. […] (Note: Weed species abbreviations are from the Composite List of Weeds published by the Weed Science Society of America, 1989.) The following examples illustrate the utility of combinations of compounds of this invention and existing herbicides. The methods used are identical to those for the application of single compounds except the commercial formulations of existing herbicides were added to the spray mixture in the appropriate amounts before spraying. Combination Example 3. Post-emergent Application of Compound 9-1 with Nicosulfuron Combination Example 4. Postemergent Application of Compound 9-1 with Pyridate

[2] = test system: Grass Weeds; assay: Post-emergent application in combination with other herbicides, percent control of grass weeds; assay type: in vivo; conditions: 31.25 g ai/ha
Method: All test compounds were dissolved in acetone and applied to the test units in a volume of 187 l/ha. Test materials were applied at rates ranging from 125 g ai/ha to 1000 g ai/ha using a track sprayer equipped with a TJ8001E even flow flat fan spray nozzle. Plants were arranged on a shelf so that the top of the canopy (post-emerge) or top of the soil surface (pre-emerge) was 40-45 cm below the nozzle. Pressurized air was used to force the test solution through the nozzle as it was mechanically advanced (via electrically driven chain drive) over the top of all test plants/pots. This application simulates a typical commercial field herbicide application. In the post-emerge test, a commercial non-ionic surfactant was also included (0.25% v/v) to enhance wetting of the leaf surfaces Qf target plants at rates ranging from 63 g ai/ha to 1000 g ai/ha. For post-emerge tests, seeds were planted 8-21 days prior to the test to allow emergence and good foliage development prior to application of the test substances. At the time of the post-emerge application, plants of all species were usually at the 2-3 leaf stage of development. Post-emerge test units were always bottom-watered. At 14 days after application of the test materials, phytotoxicity ratings were recorded. A rating scale of 0-100 was used as previously described in Research Methods in Weed Science, 2nd edition, B. Truelove, Ed., Southern Weed Science Society, Auburn University, Auburn, Ala., 1977. Briefly, “0” corresponds to no damage and “100” corresponds to complete death of all plants in the test unit. This scale was used both to determine efficacy against weed species and damage to crop species. Herbicide activity data for various compounds of this invention, which are shown by compound number in Tables 1-9, are shown in Tables 13 and 14. […] (Note: Weed species abbreviations are from the Composite List of Weeds published by the Weed Science Society of America, 1989.) The following examples illustrate the utility of combinations of compounds of this invention and existing herbicides. The methods used are identical to those for the application of single compounds except the commercial formulations of existing herbicides were added to the spray mixture in the appropriate amounts before spraying. Combination Example 3. Post-emergent Application of Compound 9-1 with Nicosulfuron Combination Example 4. Postemergent Application of Compound 9-1 with Pyridate

Nn1c(C(F)(F)F)cc(=O)n(-c2cc(Oc3ncccc3[N+](=O)[O-])c(Cl)cc2F)c1=O [Compound 9-1, 1-amino-3-[4-chloro-2-fluoro-5-(3-nitro-2-pyridyloxy)phenyl]-6-trifluoromethyl-1,2,3,4-tetrahydropyrimidine-2,4-dione]
Percent Control of Broadleaf Weeds ABUTH [1]: 60%
Percent Control of Broadleaf Weeds ABUTH ([1]; Combination Example 4): 60%
Percent Control of Broadleaf Weeds AMARE [1]: 60%
Percent Control of Broadleaf Weeds AMARE ([1]; Combination Example 4): 60%
Percent Control of Broadleaf Weeds AMBEL [1]: 40%
Percent Control of Broadleaf Weeds AMBEL ([1]; Combination Example 4): 40%
Percent Control of Broadleaf Weeds CASOB [1]: 0%
Percent Control of Broadleaf Weeds CASOB ([1]; Combination Example 4): 0%
Percent Control of Broadleaf Weeds CHEAL [1]: 90%
Percent Control of Broadleaf Weeds CHEAL ([1]; Combination Example 4): 90%
Percent Control of Broadleaf Weeds IPOHE [1]: 80%
Percent Control of Broadleaf Weeds IPOHE ([1]; Combination Example 4): 80%
Percent Control of Grass Weeds DIGSA [2]: 10%
Percent Control of Grass Weeds DIGSA ([2]; Combination Example 4): 10%
Percent Control of Grass Weeds ECHCG [2]: 0%
Percent Control of Grass Weeds ECHCG ([2]; Combination Example 4): 0%
Percent Control of Grass Weeds SETVI [2]: 10%
Percent Control of Grass Weeds SETVI ([2]; Combination Example 4): 10%
Percent Control of Grass Weeds SORHA [2]: 10%
Percent Control of Grass Weeds SORHA ([2]; Combination Example 4): 10%
